From EP0802181B1, “Retinoids” (F. HOFFMANN-LA ROCHE AG, priority 1996, dated 1997)
Read-outs that look alike come from different tables or passages of the source.

How the values were obtained:
[1] = system: limb bud cell culture; experiment: limb bud cell culture assay (evaluation of teratogenic potential); assay type: cell-based
From the text: Teratogene Effekte gehören zu den schwerschwiegensten Nebenwirkungen aller Retinoide.

[2] = system: Sebumdrüsen; experiment: Minipig model (in vivo), histology of skin biopsies
From the text: Die Wirksamkeit der erfindungsgemässen Verbindungen bei der Behandlung der Akne kann mit den nachstehend beschriebenen Versuchsanordnungen gezeigt werden: • 1. Hemmung der Proliferation menschlicher Sebocyten (in vitro) Literatur: Methods in Enzymology 190, 334 (1990), T. Doran and S. Shapiro • 2. Aenderung der Differenzierung von Schweinesebocyten (invitro), Induktion von Keratin 7. Kulturen von Schweinesebocyten werden aus isolierten Sebumdrüsen erwachsener Minischweine hergestellt. Sie reagieren auf die Behandlung mit Retinoiden mit der Expression von Keratin 7, was auch der in vivo Situation entspricht. Keratin 7 wird als ein Marker für eine modifizierte Differenzierung der Sebocyten angesehen. Der entstehende Phenotyp kann kein Sebum mehr produzieren. Die Messung der Keratin 7-Induktion basiert auf einem ELISA assay unter Verwendung eines Maus-monoklonalen Antikeratin 7-Antikörpers. • 3. Minipig-Modell (in vivo) Die Haut der Minischweine hat eine ähnliche anatomische Struktur wie menschliche Haut. Im besonderen ähneln die Sebumdrüsen denen menschlicher Aknepatienten. Unter Retinoid-Behandlung zeigen sie die gleichen histologischen Veränderungen wie beim Menschen. Die Schweine erhalten täglich eine orale Dosis der Versuchssubstanz während 8 Wochen. Alle 2 Wochen wird eine Biopsie genommen und histologisch untersucht.

[3] = limb bud cell culture assay, IC50 correlates with in vivo teratogenicity, read-out: IC50

## CC1=C(/C=C/C(C)=C/C=C/C(C)=C\C(=O)O)C(C)(C)C[C@H](O)C1 [Beispiel 1, (2Z,4E,6E,8E)-(R)-9-(4-Hydroxy-2,6,6-trimethyl-cyclohex-1-enyl)-3,7-dimethyl-nona-2,4,6,8-tetraensäure]
[1]; [3]
  IC50: > 1 µM
[2]; daily oral dose 10 mg/kg, after 3-4 weeks
  Verkleinerung der Sebumdrüsen: deutliche Verkleinerung der Sebumdrüsen
[2]; daily oral dose 10 mg/kg, after 8 weeks
  Sebumdrüsen nach 8 Wochen: weitgehend verschwunden
[2]; oral dose 50 mg/kg, in contrast to Isotretinoin
  Nebenwirkungen auf Haut und Schleimhäute: keinerlei Nebenwirkungen auf Haut und Schleimhäute

## CC1=C(C#C/C(C)=C/C=C/C(C)=C\C(=O)O)C(C)(C)C[C@H](O)C1 [Beispiel 3, (2Z,4E,6E)-(R)-9-(4-Hydroxy-2,6,6-trimethyl-cyclohex-1-enyl)-3,7-dimethyl-nona-2,4,6-trien-8-yn-säure]
[1]; [3]
  IC50: > 1 µM

## CC1=C(/C=C/C(C)=C/C=C/C(C)=C\C(=O)O)C(C)(C)CCC1 [Isotretinoin, reference compound]
[1]
  IC50: 0.2 µM

## CC1=C(/C=C/C(C)=C/C=C/C(C)=C/C(=O)O)C(C)(C)CCC1 [Tretinoin, reference compound]
[1]
  IC50: 0.08 µM

## CC1=C(/C=C/C(C)=C/C=C/C(C)=C\C(=O)O)C(C)(C)C(=O)C=C1 [Beispiel 4, (2Z,4E,6E,8E)-9-(5-Oxo-2,6,6-trimethyl-cyclohexa-1,3-dienyl)-3,7-dimethyl-nona-2,4,6,8-tetraensäure]
[1]; [3]
  IC50: > 1 µM
